IC50 data for 17 compounds are collected here from patent publication US10087188B2, “Benzamide imidazopyrazine Btk inhibitors” (MERCK SHARP & DOHME CORP., priority 2014, dated 2018).

Molecules are shown by their SMILES. Like-named read-outs stand apart in the source and are kept apart here.

The target of assay [1] is BTK enzyme (recombinant full-length BTK, hBTK) (Homo sapiens (Human), UniProt Q06187). Briefly: Btk enzyme activity assay, LANCE TR-FRET. It is filed as biochemical. Conditions: 50 pM hBTK, 2 μM biotin-A5-peptide, 25 μM ATP; 60 minute compound & enzyme incubation; read-out: BTK binding IC50. How it is done: Btk Enzyme Activity Assay Methods
BTK enzyme (recombinant full-length BTK, hBTK), sequence (Q06187 whole entry): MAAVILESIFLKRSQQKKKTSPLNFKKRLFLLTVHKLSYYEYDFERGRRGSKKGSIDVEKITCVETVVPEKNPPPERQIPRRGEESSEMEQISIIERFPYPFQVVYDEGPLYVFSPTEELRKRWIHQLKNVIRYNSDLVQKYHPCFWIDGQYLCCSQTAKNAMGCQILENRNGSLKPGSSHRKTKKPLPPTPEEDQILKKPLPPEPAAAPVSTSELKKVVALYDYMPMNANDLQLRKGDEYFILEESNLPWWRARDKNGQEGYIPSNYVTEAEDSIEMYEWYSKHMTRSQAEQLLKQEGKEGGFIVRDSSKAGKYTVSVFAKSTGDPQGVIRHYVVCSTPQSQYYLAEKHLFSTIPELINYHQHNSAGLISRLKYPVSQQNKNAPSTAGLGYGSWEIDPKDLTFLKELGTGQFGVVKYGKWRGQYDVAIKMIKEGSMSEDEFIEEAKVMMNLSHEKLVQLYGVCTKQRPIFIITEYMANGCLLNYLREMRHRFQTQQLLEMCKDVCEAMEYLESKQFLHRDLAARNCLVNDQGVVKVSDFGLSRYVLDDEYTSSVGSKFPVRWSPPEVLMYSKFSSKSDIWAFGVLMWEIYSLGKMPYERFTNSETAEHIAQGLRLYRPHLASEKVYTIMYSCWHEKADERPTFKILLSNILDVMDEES
BTK enzymatic activity was determined with the LANCE (Lanthanide Chelate Excite) TR-FRET (Time-resolved fluorescence resonance energy transfer) assay. […] After 60 minutes incubation with detection reagents, reaction plates were read on a PerkinElmer EnVision plate reader using standard TR-FRET protocol.
In general terms: TR-FRET usually uses a lanthanide donor and a delayed reading to cut background.

A further assay has as its system HeLa cells. Description: [3H] Adenosine uptake assay. Conditions: accumulation of tritiated adenosine into HeLa cells, compound concentration range 10 μM to 0.032 nM, read-out: ADU inhibition IC50 (adenosine uptake inhibition potency). Type of assay: cell-based. In short, it runs like this:
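HeLa cells in HBSS + 5% FBS preincubated 30 min at ambient temperature with compound (0.25% DMSO), then [3H]adenosine (500 nM stock) added for 60 min. Uptake measured by scintillation proximity counting; IC50 from 4-parameter fit of counts vs log concentration.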

For the compound `C[C@H]1CO[C@@H](c2nc(-c3ccc(C(=O)Nc4cc(C5CC5)ccn4)cc3F)c3c(N)nccn23)CN1[C@H]1CC[C@](C)(C(=O)O)CC1` [Example 210, trans-4-[(2R,5S)-2-(8-amino-1-{4-[(4-cyclopropylpyridin-2-yl)carbamoyl]-2-fluorophenyl}imidazo[1,5-a]pyrazin-3-yl)-5-methylmorpholin-4-yl]-1-methylcyclohexanecarboxylic acid], the IC50 in assay [1] was found to be 1.5 nM; in the assay on HeLa cells (Homo sapiens, HeLa), 6.27 µM.

`CCOc1cc(C(=O)Nc2cc(C(F)(F)F)ccn2)ccc1-c1nc([C@H]2CC[C@](C(=O)O)(C(C)C)C2)n2c(Cl)cnc(N)c12` [Example 110, (1R,3S)-3-[8-amino-5-chloro-1-(2-ethoxy-4-{[4-(trifluoromethyl)pyridin-2-yl]carbamoyl}phenyl)imidazo[1,5-a]pyrazin-3-yl]-1-(1-methylethyl) cyclopentane-carboxylic acid]: the concentration for half-maximal inhibition (IC50) was 2.1 nM in assay [1] and 4.75 µM in the assay with HeLa cells (Homo sapiens, HeLa).

`C[C@@]1(C(=O)O)CC[C@@](C)(c2nc(-c3ccc(C(=O)Nc4cc(C(F)(F)F)ccn4)cc3Cl)c3c(N)nccn23)C1` [Example 132, (1R,3R)-3-[8-amino-1-(2-chloro-4-{[4-(trifluoromethyl)pyridin-2-yl]carbamoyl}phenyl)imidazo[1,5-a]pyrazin-3-yl]-1,3-dimethylcyclopentane carboxylic acid]: the IC50 in assay [1] was 0.25 nM; with HeLa cells (Homo sapiens, HeLa), 3.16 µM.

For `Nc1nccn2c([C@@H]3CC[C@H]4[C@H](C(=O)O)[C@H]43)nc(-c3ccc(C(=O)Nc4cc(C(F)(F)F)ccn4)cc3)c12` [Example 56, (1R,2R,5R,6S)-2-[8-amino-1-(4-{[4-(trifluoromethyl)pyridin-2-yl]carbamoyl}phenyl)imidazo[1,5-a]pyrazin-3-yl]bicyclo[3.1.0]hexane-6-carboxylic acid], the IC50 in assay [1] stood at 0.52 nM; in the assay on HeLa cells (Homo sapiens, HeLa) it was 10 µM.

For `CC1(C)[C@H](C(=O)O)CC[C@@]1(C)c1nc(-c2ccc(C(=O)Nc3cc(C(F)(F)F)ccn3)cc2)c2c(N)nccn12` [Example 148, (1R,3R)-3-[8-amino-1-(4-{[4-(trifluoromethyl)pyridin-2-yl]carbamoyl}phenyl)imidazo[1,5-a]pyrazin-3-yl]-2,2,3-trimethylcyclopentane carboxylic acid], the IC50 in assay [1] was 7.2 nM; in the assay with HeLa cells (Homo sapiens, HeLa), 10 µM.

For the compound `CC1(C)[C@H](C(=O)O)CC[C@]1(C)c1nc(-c2ccc(C(=O)Nc3cc(C(F)(F)F)ccn3)cc2)c2c(N)nccn12` [Example 141, (1R,3S)-3-[8-amino-1-(4-{[4-(trifluoromethyl)pyridin-2-yl]carbamoyl}phenyl)imidazo[1,5-a]pyrazin-3-yl]-2,2,3-trimethylcyclopentane carboxylic acid], the IC50 was 5.2 nM in assay [1] and 2.98 µM in the assay on HeLa cells (Homo sapiens, HeLa).

On to `CCOc1cc(C(=O)Nc2cc(C(F)(F)F)n(C)n2)ccc1-c1nc([C@H]2CC[C@](C(=O)O)(C(C)C)C2)n2ccnc(N)c12` [Example 58, (1R,3S)-3-[8-amino-1-(2-ethoxy-4-{[1-methyl-5-(trifluoromethyl)-1H-pyrazol-3-yl]carbamoyl}phenyl)imidazo[1,5-a]pyrazin-3-yl]-1-(1-methylethyl) cyclopentane-carboxylic acid], for which the IC50 in assay [1] stood at 27.6 nM; in the assay with HeLa cells (Homo sapiens, HeLa), 10 µM.

Regarding `Nc1nccn2c(C34CCC(C(=O)O)(CC3)C4)nc(-c3ccc(C(=O)Nc4cc(C(F)(F)F)ccn4)cc3)c12` [Example 65, 4-[8-amino-1-(4-{[4-(trifluoromethyl)pyridin-2-yl]carbamoyl}phenyl)imidazo[1,5-a]pyrazin-3-yl]bicyclo[2.2.1] heptane-1-carboxylic acid], the IC50 in assay [1] stood at 0.6 nM; in the assay with HeLa cells (Homo sapiens, HeLa) it was 6.06 µM.

As for `Nc1nccn2c(C34CCC(C(=O)O)(CC3)CC4)nc(-c3ccc(C(=O)Nc4cc(C(F)(F)F)ccn4)cc3F)c12` [Example 170, 4-[8-amino-1-(2-fluoro-4-{[4-(trifluoromethyl)pyridin-2-yl]carbamoyl}phenyl)imidazo[1,5-a]pyrazin-3-yl]bicyclo[2.2.2] octane-1-carboxylic acid], the concentration for half-maximal inhibition (IC50) in assay [1] came to 0.16 nM; in the assay on HeLa cells (Homo sapiens, HeLa) it was 0.623 µM.

`C[C@H]1CO[C@@H](c2nc(-c3ccc(C(=O)Nc4cc(C(F)(F)F)ccn4)cc3F)c3c(N)nccn23)CN1[C@H]1CC[C@](C)(C(=O)O)CC1` [Example 193, trans-4-{(2R,5S)-2-[8-amino-1-(2-fluoro-4-{[4-(trifluoromethyl)pyridin-2-yl]carbamoyl}phenyl)imidazo [1,5-a]pyrazin-3-yl]-5-methylmorpholin-4-yl}-1-methylcyclohexanecarboxylic acid]: the half-inhibitory concentration (IC50) in assay [1] came out at 0.56 nM; in the assay with HeLa cells (Homo sapiens, HeLa), 2.84 µM.

Regarding `C[C@H]1CO[C@@H](c2nc(-c3ccc(C(=O)Nc4cc(C(F)(F)F)ccn4)cc3)c3c(N)nccn23)CN1[C@H]1CC[C@@](C)(C(=O)O)CC1` [Example 192, cis-4-{(2R,5S)-2-[8-amino-1-(4-{[4-(trifluoromethyl)pyridin-2-yl]carbamoyl}phenyl)imidazo [1,5-a]pyrazin-3-yl]-5-methylmorpholin-4-yl}-1-methylcyclohexanecarboxylic acid], the IC50 in assay [1] was 2.8 nM; in the assay with HeLa cells (Homo sapiens, HeLa), 3.08 µM.

Consider `CC(C)(C(=O)O)C1CCC(c2nc(-c3ccc(C(=O)Nc4cc(C(F)(F)F)ccn4)cc3)c3c(N)nccn23)C1` (stereo not shown) [Example 94, 2-{3-[8-amino-1-(4-{[4-(trifluoromethyl)pyridin-2-yl]carbamoyl}phenyl)imidazo[1,5-a]pyrazin-3-yl]cyclopentyl}-2-methylpropanoic acid], for which the figures for the IC50 (in assay [1]; with HeLa cells) were 1.4 nM and 10 µM, respectively.

For the compound `CC1(C)[C@@H](C(=O)O)CC[C@]1(C)c1nc(-c2ccc(C(=O)Nc3cc(C(F)(F)F)ccn3)cc2)c2c(N)nccn12` [Example 147, (1S,3S)-3-[8-amino-1-(4-{[4-(trifluoromethyl)pyridin-2-yl]carbamoyl}phenyl)imidazo[1,5-a]pyrazin-3-yl]-2,2,3-trimethylcyclopentane carboxylic acid], the concentration for half-maximal inhibition (IC50) came out at 7 nM in assay [1] and 10 µM in the assay on HeLa cells (Homo sapiens, HeLa).

`C[C@H]1CO[C@@H](c2nc(-c3ccc(C(=O)Nc4cc(C(F)F)ccn4)cc3F)c3c(N)ncc(Cl)n23)CN1[C@H]1CC[C@](C)(C(=O)O)CC1` [Example 207, trans-4-{(2R,5S)-2-[8-amino-5-chloro-1-(4-{[4-(difluoromethyl)pyridin-2-yl]carbamoyl}-2-fluorophenyl)imidazo[1,5-a]pyrazin-3-yl]-5-methylmorpholin-4-yl}-1-methylcyclohexanecarboxylic acid]: the half-inhibitory concentration (IC50) is 737 nM in assay [1] and 10 µM in the assay on HeLa cells (Homo sapiens, HeLa).

For the compound `CC1(C)[C@H](c2nc(-c3ccc(C(=O)Nc4cc(C(F)(F)F)ccn4)cc3)c3c(N)nccn23)CC[C@]1(C)C(=O)O` [Example 69, (1S,3R)-3-[8-amino-1-(4-{[4-(trifluoromethyl)pyridin-2-yl]carbamoyl}phenyl)imidazo[1,5-a]pyrazin-3-yl]-1,2,2-trimethylcyclopentane carboxylic acid], the IC50 in assay [1] turned out to be 0.37 nM; in the assay with HeLa cells (Homo sapiens, HeLa), 1.08 µM.

For `CCOc1cc(C(=O)Nc2cc(C3CC3)ccn2)cc(F)c1-c1nc(C2(C)CCC(C)(C(=O)O)CC2)n2ccnc(N)c12` (stereo not shown) [Example 131, 4-(8-amino-1-{4-[(4-cyclopropylpyridin-2-yl)carbamoyl]-2-ethoxy-6-fluorophenyl}imidazo [1,5-a]pyrazin-3-yl)-1,4-dimethylcyclohexane-carboxylic acid], the IC50 in assay [1] is 0.75 nM; in the assay with HeLa cells (Homo sapiens, HeLa) it was 10 µM.

As to `C[C@]1(C(=O)O)CCN(c2nc(-c3ccc(C(=O)Nc4cc(C(F)(F)F)ccn4)cc3)c3c(N)nccn23)C1` [Example 45, (3S)-1-[8-amino-1-(4-{[4-(trifluoromethyl)pyridin-2-yl]carbamoyl}phenyl)imidazo[1,5-a]pyrazin-3-yl]-3-methylpyrrolidine-3-carboxylic acid], the IC50 came out at 1.4 nM in assay [1] and 10 µM in the assay with HeLa cells (Homo sapiens, HeLa).

As a reminder, the IC50 is the concentration at which inhibition is half-maximal.
